Legend:
[1] = target: T1, hERG channel (Homo sapiens, UniProt Q12809); assay: hERG Receptor Binding Assay (125I-BeKm-1, membranes from HEK-293 cells containing transfected hERG channels); conditions: 125I-BeKm-1 0.1 nM final, 1 hr at room temperature
T1 construct: purchased Perkin Elmer RBHERGM400UA; host or cells: HEK-293 cells transfected with hERG (membrane preparation)
Description: Medium throughput screening of compounds for interaction with the human Ether-a-go-go related gene (hERG) was performed by modification of equilibrium dissociation assays using 125I-labelled peptide BeKm-1. BeKm-1, a scorpion toxin from the Central Asian scorpion Buthus eupeus, selectively blocks the hERG channel. Angelo, K., et al., 2003, Pflugers Arch.-Eur. J. Physiol., 447: 55-63; Chiu, P J S, et al., J. Pharmacol. Sci., 2004, 95: 311-319. Isolated membrane preparations from HEK-293 cells containing transfected hERG channels (hERG K+ Channel Membrane Target Systems™; Cat #, RBHERGM400UA) (Perkin Elmer, Boston, Mass.) were suspended in assay buffer A at a final concentration of 1:150 v/v. Compounds for screening, and non-radiolabelled BeKm-1, as well as 125I-BeKm-1 radioligand (Perkin Elmer; Cat #, NEX-412; Specific Activity 2,200 Ci/mmol), were also reconstituted in Buffer A. Assay components were incubated in 96-well, round-bottom polypropylene plates in the following ratio:
25 μl compound at appropriate concentrations
25 μl radiolabelled BeKm-1 at 0.8 nM (final concentration of 0.1 nM)
150 μl membrane preparation
The assay was incubated with shaking for 1 hr at room temperature. Subsequently, the well contents were transferred to 96-well filtration plates (GF/C multiwell plates (MultiScreen™ HTS; Millipore, 290 Concord Road, Billerica, Mass. 01821 USA; Cat# MSFBN6B-XX pre-soaked in 0.3% polyethyleneimine; Acros Organics, NJ; Cat#178571000). Unbound radioactivity was removed and the membranes washed 4 times with ice-cold Buffer B, under vacuum. Plates were air-dried and bound radioactivity counted on a Packard Top-Count NXT™ microplate scintillation and luminescence counter (Packard Instrument Co., Downers Grove, Ill.). Equilibrium dissociation was analyzed and IC50 and/or Ki values were calculated using GraphPad Prism 4™ software (GraphPad Software, San Diego, Calif.).
Assay Buffer A: ([…] (MP Biomedicals, LLC; 29525 Fountain Parkway, Solon Ohio, 441389; Cat #1688449) in water, pH 7.2 with 1M Tris (Fisher Chemicals, Fair Lawn, N.J. 07410; Cat #, BP-1757-500); 100 μM KCl (Fisher Chemicals, Cat #, BP-366-500); 0.1% BSA (Sigma Aldrich, 3050 Spruce Street, St. Louis, Mo. 63103; Cat #, A3059). Assay Buffer B: 20 mM Tris HCl, pH 7.3; 150 mM NaCl (Fisher Chemicals; Cat #, S78449).
The hERG binding assay results are summarized in Table 2, wherein A represents no measured activity (i.e., a value greater than 100 μM), and B represents a value greater than 10 μM but less than 100 μM and C represents a value less than 10 μM.

[2] = target: T2, CCR3 receptor (UniProt P51677); assay: CCR3 Receptor Binding Assay ([125I]-labeled human eotaxin/CCL11 displacement on cells); conditions: 0.1 nM [125I]-labeled human eotaxin/CCL11, 60 min at room temperature
T2 sequence (P51677 1-355): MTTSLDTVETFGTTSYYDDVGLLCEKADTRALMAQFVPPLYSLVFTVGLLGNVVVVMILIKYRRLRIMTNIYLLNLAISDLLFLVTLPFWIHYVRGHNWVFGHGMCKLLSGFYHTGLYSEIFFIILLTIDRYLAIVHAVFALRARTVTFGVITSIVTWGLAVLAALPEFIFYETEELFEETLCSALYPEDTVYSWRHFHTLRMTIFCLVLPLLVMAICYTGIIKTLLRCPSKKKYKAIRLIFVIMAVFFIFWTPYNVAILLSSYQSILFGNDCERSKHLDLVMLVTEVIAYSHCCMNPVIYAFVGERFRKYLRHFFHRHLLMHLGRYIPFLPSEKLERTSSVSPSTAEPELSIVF
Description: Cells were washed once with PBS and resuspended in a binding buffer (25 mM HEPES pH 7.6, 5 mM MgCl2, 1 mM CaCl2, 0.5% BSA, 0.1% NaN3). […] of cell suspension (2×10^5 cells/well) and 0.1 nM [^125I]-labeled human eotaxin/CCL11 (2000 Ci/mmol specific activity) were mixed in a 96-well U-bottom polypropylene plate, and incubated for 60 min at room temperature for the binding reaction. The cell suspension was then transferred to a filtration plate (#MAFB, Millipore), and washed 3 times with the binding buffer containing 0.5 M NaCl, scintillant added, and the radioactivity was counted on a TopCount (Packard). For the determination of non-specific binding, the cell suspension and [^125I]-labeled human eotaxin/CCL11 were incubated in the presence of 500 nM of unlabeled human eotaxin/CCL11. See, lino et al., “Molecular cloning and functional characterization of cynomolgus monkey (Macaca fascicularis) CC chemokine receptor, CCR3,” Cytokine 2002, 19, 276-286.
The biological results are summarized in Table 1, wherein A represents a value no greater than 50 nM, and B represents a value greater than 50 nM but no greater than 500 nM, C represents a value greater than 500 nM but no greater than 5 μM; and D represents a value greater than 5 μM.

T1 sequence (Q12809 whole entry): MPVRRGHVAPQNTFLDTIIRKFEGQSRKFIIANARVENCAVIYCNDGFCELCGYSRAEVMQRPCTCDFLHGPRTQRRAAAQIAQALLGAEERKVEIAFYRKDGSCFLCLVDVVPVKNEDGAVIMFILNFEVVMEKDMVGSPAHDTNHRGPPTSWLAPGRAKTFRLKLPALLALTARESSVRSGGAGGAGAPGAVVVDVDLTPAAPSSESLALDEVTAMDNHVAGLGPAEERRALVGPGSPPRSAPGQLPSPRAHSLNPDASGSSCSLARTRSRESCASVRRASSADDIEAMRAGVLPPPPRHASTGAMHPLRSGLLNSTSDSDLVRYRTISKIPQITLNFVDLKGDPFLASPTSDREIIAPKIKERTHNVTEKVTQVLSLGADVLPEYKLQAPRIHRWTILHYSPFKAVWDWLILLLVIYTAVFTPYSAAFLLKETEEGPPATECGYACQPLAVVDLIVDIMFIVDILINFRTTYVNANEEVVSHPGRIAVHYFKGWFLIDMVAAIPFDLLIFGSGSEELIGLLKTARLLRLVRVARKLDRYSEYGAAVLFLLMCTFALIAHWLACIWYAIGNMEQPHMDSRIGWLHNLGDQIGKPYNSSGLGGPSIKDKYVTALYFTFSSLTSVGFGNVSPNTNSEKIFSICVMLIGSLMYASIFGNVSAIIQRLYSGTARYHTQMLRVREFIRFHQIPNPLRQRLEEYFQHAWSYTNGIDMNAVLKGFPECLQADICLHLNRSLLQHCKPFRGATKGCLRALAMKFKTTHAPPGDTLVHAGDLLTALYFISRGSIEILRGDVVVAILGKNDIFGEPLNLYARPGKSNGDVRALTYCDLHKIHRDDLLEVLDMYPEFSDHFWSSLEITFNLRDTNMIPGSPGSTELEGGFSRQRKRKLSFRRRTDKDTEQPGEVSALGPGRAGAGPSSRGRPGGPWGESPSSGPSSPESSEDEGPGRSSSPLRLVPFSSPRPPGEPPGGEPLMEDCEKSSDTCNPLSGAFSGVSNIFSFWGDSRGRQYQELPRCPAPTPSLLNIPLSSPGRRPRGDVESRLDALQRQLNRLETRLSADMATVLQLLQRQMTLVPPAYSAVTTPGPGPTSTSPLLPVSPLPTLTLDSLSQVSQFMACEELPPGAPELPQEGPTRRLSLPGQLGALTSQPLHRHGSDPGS

| Ki [2] | Structure (SMILES) | Ki [1] |
| --- | --- | --- |
| – | CC(=O)NC1CCN(S(=O)(=O)c2cc(C#N)ccc2Oc2cc(Cl)cc(Cl)c2)CC1 [Compound 5, N-(1-(5-cyano-2-(3,5-dichlorophenoxy)phenylsulfonyl)piperidin-4-yl)acetamide] | > 100 µM |
| – | N#Cc1ccc(Oc2cc(Cl)cc(Cl)c2)c(S(=O)(=O)N2CCC(NC(=O)CCCCl)CC2)c1 [Compound 8, 4-chloro-N-(1-(5-cyano-2-(3,5-dichlorophenoxy)phenylsulfonyl)piperidin-4-yl)butanamide] | > 100 µM |
| – | Cc1ccc(C(=O)NC2CCN(S(=O)(=O)c3cc(C#N)ccc3Oc3cc(Cl)cc(Cl)c3)CC2)cc1 [Compound 10, N-(1-(5-cyano-2-(3,5-dichlorophenoxy)phenylsulfonyl)piperidin-4-yl)-4-methylbenzamide] | > 100 µM |
| – | N#Cc1ccc(Oc2cc(Cl)cc(Cl)c2)c(S(=O)(=O)N2CCC(NC(=O)c3cccc(F)c3)CC2)c1 [Compound 11, N-(1-(5-cyano-2-(3,5-dichlorophenoxy)phenylsulfonyl)piperidin-4-yl)-3-fluorobenzamide] | > 100 µM |
| – | CC(C)NC(=O)NC1CCN(S(=O)(=O)c2cc(C#N)ccc2Oc2cc(Cl)cc(Cl)c2)CC1 [Compound 12, 1-(1-(5-cyano-2-(3,5-dichlorophenoxy)phenylsulfonyl)piperidin-4-yl)-3-isopropylurea] | > 100 µM |
| – | C=CCNC(=O)NC1CCN(S(=O)(=O)c2cc(C#N)ccc2Oc2cc(Cl)cc(Cl)c2)CC1 [Compound 13, 1-allyl-3-(1-(5-cyano-2-(3,5-dichlorophenoxy)phenylsulfonyl)piperidin-4-yl)urea] | > 100 µM |
| – | N#Cc1ccc(Oc2cc(Cl)cc(Cl)c2)c(S(=O)(=O)N2CCC(NC(=O)NCc3ccco3)CC2)c1 [Compound 16, 1-(1-(5-cyano-2-(3,5-dichlorophenoxy)phenylsulfonyl)piperidin-4-yl)-3-(furan-2-ylmethyl)urea] | > 100 µM |
| – | CC(C)NC(=S)NC1CCN(S(=O)(=O)c2cc(C#N)ccc2Oc2cc(Cl)cc(Cl)c2)CC1 [Compound 17, 1-(1-(5-cyano-2-(3,5-dichlorophenoxy)phenylsulfonyl)piperidin-4-yl)-3-isopropylthiourea] | > 100 µM |
| – | CSCCCNC(=S)NC1CCN(S(=O)(=O)c2cc(C#N)ccc2Oc2cc(Cl)cc(Cl)c2)CC1 [Compound 18, 1-(1-(5-cyano-2-(3,5-dichlorophenoxy)phenylsulfonyl)piperidin-4-yl)-3-(3-(methylthio)propyl)thiourea] | > 100 µM |
| ≤ 0.05 µM | N#Cc1ccc(Oc2cc(Cl)cc(Cl)c2)c(S(=O)(=O)N2CCC(NC(=O)NCCN3CCOCC3)CC2)c1 [Compound 22, 1-(1-(5-cyano-2-(3,5-dichlorophenoxy)phenylsulfonyl)piperidin-4-yl)-3-(2-morpholinoethyl)urea] | – |
| 0.5 to 5 µM | Cc1cc(C)cc(Sc2ccc(C#N)cc2S(=O)(=O)NC2CCN(C(=O)OC(C)(C)C)CC2)c1 [Compound 23] | – |
| > 5 µM | Cc1ccc(S(=O)(=O)N2CCC(NS(=O)(=O)c3cc(C#N)ccc3Oc3cc(C)cc(C)c3)CC2)cc1 [Compound 31, 5-cyano-2-(3,5-dimethylphenoxy)-N-(1-tosylpiperidin-4-yl)benzenesulfonamide] | – |
| > 5 µM | N#Cc1ccc(Oc2cc(Cl)cc(Cl)c2)c(S(=O)(=O)NC2CCN(S(=O)(=O)c3cccc(F)c3)CC2)c1 [Compound 32, 5-cyano-2-(3,5-dichlorophenoxy)-N-(1-(3-fluorophenylsulfonyl)piperidin-4-yl)benzenesulfonamide] | – |
| > 5 µM | N#Cc1ccc(Oc2cc(Cl)cc(Cl)c2)c(S(=O)(=O)NC2CCN(C(=O)c3ccc(C(F)(F)F)cc3)CC2)c1 [Compound 34] | – |
| > 5 µM | N#Cc1ccc(Oc2cc(Cl)cc(Cl)c2)c(S(=O)(=O)NC2CCN(C(=O)c3ccccc3)CC2)c1 [Compound 35] | – |
| > 5 µM | Cc1cc(C)cc(Oc2ccc(C#N)cc2S(=O)(=O)NC2CCN(S(C)(=O)=O)CC2)c1 [Compound 37] | – |
| > 5 µM | CC(C)C(=O)N1CCC(NS(=O)(=O)c2cc(C#N)ccc2Oc2cc(Cl)cc(Cl)c2)CC1 [Compound 39] | – |
| 0.05 to 0.5 µM | N#Cc1ccc(Oc2cc(Cl)cc(Cl)c2)c(S(=O)(=O)NC2CCN(C(=O)Nc3cccc(F)c3)CC2)c1 [Compound 44] | – |
| 0.5 to 5 µM | CC(C)(C)OC(=O)N1CCC(NS(=O)(=O)c2cc(C#N)ccc2Sc2cc(Cl)cc(Cl)c2)CC1 [Compound 45] | – |
| ≤ 0.05 µM | N#Cc1ccc(Oc2cc(Cl)cc(Cl)c2)c(S(=O)(=O)N2CCC(NC(=O)NCCN3CCSCC3)CC2)c1 [Compound 47, 1-(1-(5-cyano-2-(3,5-dichlorophenoxy)phenylsulfonyl)piperidin-4-yl)-3-(2-thiomorpholinoethyl)urea] | – |
| ≤ 0.05 µM | N#Cc1ccc(Oc2cc(Cl)cc(Cl)c2)c(S(=O)(=O)N2CCC(NC(=O)NCCN3CCCCC3)CC2)c1 [Compound 48, 1-(1-(5-cyano-2-(3,5-dichlorophenoxy)phenylsulfonyl)piperidin-4-yl)-3-(2-(piperidin-1-yl)ethyl)urea] | – |
| ≤ 0.05 µM | N#Cc1ccc(Oc2cc(Cl)cc(Cl)c2)c(S(=O)(=O)N2CCC(NC(=O)NCCN3CCNCC3)CC2)c1 [Compound 49, 1-(1-(5-cyano-2-(3,5-dichlorophenoxy)phenylsulfonyl)piperidin-4-yl)-3-(2-(piperazin-1-yl)ethyl)urea] | – |
| ≤ 0.05 µM | N#Cc1ccc(Oc2cc(Cl)cc(Cl)c2)c(S(=O)(=O)N2CCC(NC(=O)NCCN3CCC(F)CC3)CC2)c1 [Compound 50, 1-(1-(5-cyano-2-(3,5-dichlorophenoxy)phenylsulfonyl)piperidin-4-yl)-3-(2-(4-fluoropiperidin-1-yl)ethyl)urea] | – |
| ≤ 0.05 µM | CN1CCN(CCNC(=O)NC2CCN(S(=O)(=O)c3cc(C#N)ccc3Oc3cc(Cl)cc(Cl)c3)CC2)CC1 [Compound 51, 1-(1-(5-cyano-2-(3,5-dichlorophenoxy)phenylsulfonyl)piperidin-4-yl)-3-(2-(4-methylpiperazin-1-yl)ethyl)urea] | – |
| ≤ 0.05 µM | [2H]c1c([2H])c(Oc2cc(Cl)cc(Cl)c2)c(S(=O)(=O)N2CCC(NC(=O)NCC=C)CC2)c([2H])c1C#N [Compound 53, 1-allyl-3-(1-(5-cyano-3,4,6-trideutero-2-(3,5-dichlorophenoxy)phenylsulfonyl)piperidin-4-yl)urea] | – |
| ≤ 0.05 µM | [2H]c1c([2H])c(Oc2cc(Cl)cc(Cl)c2)c(S(=O)(=O)N2CCC(NC(=O)NCCN3C([2H])([2H])C([2H])([2H])OC([2H])([2H])C3([2H])[2H])CC2)c([2H])c1C#N [Compound 54, 1-(1-(5-cyano-3,4,6-trideutero-2-(3,5-dichlorophenoxy)phenylsulfonyl)piperidin-4-yl)-3-(2-(2,2,3,3,5,5,6,6-octadeutero-morpholino)ethyl)urea] | – |
